Test results: ChEMBL document CHEMBL3886937, “Pyrimidodiazepinone compound” (2016)

Experiment: [3H]-Gabapentin Binding Assay: A test compound (20 μL) diluted to 5 times of the final concentration with Binding buffer, [3H]-gabapentin diluted to 100 nmol/L with binding buffer [20 μL (final concentration 20 nmol/L)], and the rat cerebral cortex membrane fraction (60 μL; 12 μg membrane fraction) obtained in the (1) above were added to each well of a 96-well round-bottom plate. After being sufficiently mixed, these were allowed to react at room temperature for 1 hour. After the reaction, the reaction sample was suction filtered using a filter plate with 50 μL/well of 0.3 vol % polyethyleneimine added, and a cell harvester. The filter was then washed with ice-cooled Wash buffer (100 mmol/L NaCl, 0.1 w/v % BSA). After being washed, the filter plate was dried, and a scintillation cocktail (MicroScint-20, purchased from PerkinElmer) was added (50 μL/well), and the radioactivity on the filter was measured. The radioactivity obtained in the absence of the test compound was measured as total binding amount, and the radioactivity obtained by addition of an unlabeled gabapentin (final concentration 100 mmol/L) as a test compound was measured as non-specific binding amount.

| Structure (SMILES) | IC50 |
| --- | --- |
| CCNc1ncc2c(n1)N1CCC[C@H]1CN(c1cccc3c(=O)n(C)ccc13)C2=O | 5 nM |
| CCNc1ncc2c(n1)N1CCC[C@H]1CN(c1cccc3c(=O)n(CCF)c(C)nc13)C2=O | 4.8 nM |
| CNc1ncc2c(n1)N1CCC[C@H]1CN(c1cccn3c(=O)c(C)c(C)nc13)C2=O | 4.7 nM |
| CCNc1ncc2c(n1)N1CCC[C@H]1CN(c1cccc3ncn(C)c(=O)c13)C2=O | 3.9 nM |
| CCNc1ncc2c(n1)N1CCC[C@H]1CN(c1cccn3c(=O)cc(C)nc13)C2=O | 5.2 nM |
| CCn1cnc2c(N3C[C@@H]4CCCN4c4nc(NC)ncc4C3=O)cccc2c1=O | 4 nM |
| CNc1ncc2c(n1)N1CCC[C@H]1CN(c1cncc3c(=O)n(C)cnc13)C2=O | 4.1 nM |
| CCNc1ncc2c(n1)N1CCC[C@H]1CN(c1cccc3c(=O)n(C)c(COC)nc13)C2=O | 3.8 nM |

These reach a lower IC50. Values come first.

| IC50 | Structure (SMILES) |
| --- | --- |
| 1.2 nM | CNc1ncc2c(n1)N1CCC[C@H]1CN(c1cccc3c(=O)n(CCCN(C)C)cnc13)C2=O |
| 3 nM | CCNc1ncc2c(n1)N1CCC[C@H]1CN(c1scc3c(=O)n(C)cnc13)C2=O |
| 2.6 nM | CNc1ncc2c(n1)N1CCC[C@H]1CN(c1cccc3c(=O)n(C)cnc13)C2=O |
| 0.7 nM | CCNc1ncc2c(n1)N1CCC[C@H]1CN(c1cccc3c(=O)n(CCCN(C)C)cnc13)C2=O |
| 2.7 nM | CCNc1ncc2c(n1)N1CCC[C@H]1CN(c1cccn3c(=O)c(C)c(C)nc13)C2=O |
| 2.6 nM | CCNc1ncc2c(n1)N1CCC[C@H]1CN(c1cccc3c(=O)n(C)c(C)nc13)C2=O |
| 2.6 nM | CCNc1ncc2c(n1)N1CCC[C@H]1CN(c1c[nH]c3ncn(C)c(=O)c13)C2=O |
| 3.6 nM | CNc1ncc2c(n1)N1CCC[C@H]1CN(c1c[nH]c3ncn(C)c(=O)c13)C2=O |
| 3 nM | CCCNc1ncc2c(n1)N1CCC[C@H]1CN(c1cccc3c(=O)n(C)cnc13)C2=O |
